Among the data in patent US20240150340A1, “CDK Inhibitors And Their Use As Pharmaceuticals” (Prelude Therapeutics Incorporated, priority 2022, published 2024) are IC50 values, retold here.

One assay has as its target T1, CDK2/Cyclin E2 (Homo sapiens, UniProt P24941).
T1 construct: Recombinant protein complex CDK2/Cyclin E2, expressed from insect cell, was purchased from ProQinase
As to the kind of experiment: CDK2/CyclinE2 Enzymatic Activity Assay (TR-FRET). The assay is classed as biochemical. The settings on record: ATP 1 mM final, read-out: CDK2_E1 IC50. The gist of the method: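 Recombinant insect-cell CDK2/Cyclin E2 (1 nM) phosphorylated ULight-4E-BP1 (50 nM) with 1 mM ATP in HEPES pH 7.4 buffer, after 20 min compound preincubation; MgCl2 (10 mM) started the 45 min reaction at 37° C. Europium anti-phospho-4E-BP1 TR-FRET read; 9-dose IC50 by 4-parameter fit.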

The target of a further assay is T2, CDK4/Cyclin D1 (Homo sapiens, UniProt P11802).
T2 construct: purchased ProQinase; host or cells: insect cell
T2 sequence (P11802 whole entry): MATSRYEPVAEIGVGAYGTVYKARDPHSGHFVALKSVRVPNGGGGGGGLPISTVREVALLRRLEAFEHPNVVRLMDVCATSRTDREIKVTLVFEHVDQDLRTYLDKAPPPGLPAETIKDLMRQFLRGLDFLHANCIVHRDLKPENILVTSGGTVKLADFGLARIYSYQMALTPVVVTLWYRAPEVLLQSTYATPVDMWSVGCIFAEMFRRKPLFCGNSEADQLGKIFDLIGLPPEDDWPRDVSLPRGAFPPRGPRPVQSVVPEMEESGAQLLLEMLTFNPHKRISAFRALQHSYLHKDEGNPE
T2 sequence (P24385 whole entry partner): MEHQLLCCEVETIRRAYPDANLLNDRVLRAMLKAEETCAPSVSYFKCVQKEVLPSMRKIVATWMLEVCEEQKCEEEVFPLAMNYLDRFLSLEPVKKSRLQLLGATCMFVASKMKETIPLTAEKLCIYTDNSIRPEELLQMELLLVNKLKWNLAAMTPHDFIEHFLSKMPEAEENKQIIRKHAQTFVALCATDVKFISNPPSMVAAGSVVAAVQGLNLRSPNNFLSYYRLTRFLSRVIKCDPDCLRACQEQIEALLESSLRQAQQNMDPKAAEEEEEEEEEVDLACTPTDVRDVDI
In words: CDK4/CyclinD1 Enzymatic Activity Assay (TR-FRET). The format is biochemical. The settings on record: ATP 2 mM final, read-out: CDK4_D1 IC50. As for the experimental part:
CDK4/CyclinD1 Enzymatic Activity Assay
The inhibitory activity of compounds was evaluated in vitro using TR-FRET assay with white 384-well low volume microplate (Greiner Bio-One). CDK4/Cyclin D1 catalyzed phosphorylation of peptide in the presence and absence of compounds was measured and used in IC50 determination. Recombinant protein complex CDK4/Cyclin D1, expressed from insect cell, was purchased from ProQinase. Testing compounds were dissolved in DMSO at 1 mM and tested in 9-dose IC50 mode. The reaction mixture was prepared by mixing CDK4/CyclinD1 (1 nM final), ULight-4E-BP1 (100 nM final, Perkinelmer, TRF0128-D), and ATP (2 mM final) in assay buffer (20 mM of HEPES pH 7.4, 1 mM of EGTA, 0.05% BSA, 0.005% Tween 20, and 1 mM TCEP). The compound of interest in DMSO was added to each well in 3-fold serial dilution by the dispenser (TECAN D300E) to make a 9.9 μL of reaction mixture. After 20 minutes preincubation at room temperature, 0.1 μL MgCl2 (10 mM final) was added to initiate the reaction. Following a 45-minute incubation at 37° C., the reaction was stopped by addition of 2 μL of quenching buffer consisting of Lance detection buffer (Perkinelmer CR97-100C), LANCE Ultra Europium-anti-P-4E-BP1 (Perkinelmer, TRF0216-D), EDTA, and incubated at room temperature for additional 60 minutes in dark. The reaction signal was measured by Envision multimode plate reader (PerkinElmer, 2102-0010). IC50 values were determined by fitting the data to the standard 4 parameters with Hill Slope using GraphPad Prism software.
On the technique in general: In TR-FRET formats the signal depends on donor and acceptor labels being close together.

For a further assay, the system named is OVCAR3 p-RB. As to the kind of experiment: pRB ICW Assay in OVCAR3 Cells. The assay is classed as cell-based. The settings on record: Homo sapiens, OVCAR-3, incubated with compound for 2 hours. Put shortly: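 OVCAR3 cells were treated 2 h at 37° C. with a 9-point half-log compound series, duplicate wells, with 10 μM reference compound as maximum inhibition. Fixed, permeabilized cells were stained with anti-phospho-RB plus DRAQ5 and imaged at 700/800 nm (In-Cell Western).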

For the molecule `CC(O)c1cnc(-c2nc(NC3CCN(S(=O)(=O)c4cn(C)cn4)CC3)ncc2C(F)(F)F)s1` (stereo not drawn) [Example 63, 1-(2-(2-((1-((1-methyl-1H-imidazol-4-yl)sulfonyl)piperidin-4-yl)amino)-5-(trifluoromethyl)pyrimidin-4-yl)thiazol-5-yl)ethan-1-ol], the IC50 on CDK2/Cyclin E2, at CDK4/Cyclin D1 and in the assay on OVCAR3 p-RB was at most 100 nM each time.
Turning to `Cc1sc(-c2nc(N[C@@H]3CCN(S(=O)(=O)c4cn(C)cn4)C[C@H]3F)ncc2C(F)(F)F)cc1C(N)=O` [Example 18, 5-(2-(((3R,4R)-3-fluoro-1-((1-methyl-1H-imidazol-4-yl)sulfonyl)piperidin-4-yl)amino)-5-(trifluoromethyl)pyrimidin-4-yl)-2-methylthiophene-3-carboxamide], the IC50 at CDK2/Cyclin E2, on CDK4/Cyclin D1 and in the assay with OVCAR3 p-RB was at most 100 nM each time.
On to `Cc1sc(-c2nc(N[C@H]3CCN(S(C)(=O)=O)C[C@H]3F)ncc2C(F)(F)F)cc1C(N)=O` [Example 9, 5-(2-(((3R,4S)-3-fluoro-1-(methylsulfonyl)piperidin-4-yl)amino)-5-(trifluoromethyl)pyrimidin-4-yl)-2-methylthiophene-3-carboxamide], for which the IC50 on CDK2/Cyclin E2, on CDK4/Cyclin D1 and in the assay on OVCAR3 p-RB was at most 100 nM in each case.
`C[C@@H]1CN(S(=O)(=O)c2cn(C)cn2)CC[C@@H]1Nc1ncc(C(F)(F)F)c(-c2cc(C(N)=O)cs2)n1` [Example 20, 5-(2-(((3R,4S)-3-methyl-1-((1-methyl-1H-imidazol-4-yl)sulfonyl)piperidin-4-yl)amino)-5-(trifluoromethyl)pyrimidin-4-yl)thiophene-3-carboxamide]: the IC50 at CDK2/Cyclin E2 is at most 100 nM; at CDK4/Cyclin D1, at most 100 nM; with OVCAR3 p-RB it was 100 to 500 nM.
On to `CC(=O)c1cc(-c2nc(NC3CCN(S(=O)(=O)c4cnn(C)c4)CC3)ncc2C(F)(F)F)sc1C` [Example 81, 1-(2-methyl-5-(2-((1-((1-methyl-1H-pyrazol-4-yl)sulfonyl)piperidin-4-yl)amino)-5-(trifluoromethyl)pyrimidin-4-yl)thiophen-3-yl)ethan-1-one], for which the IC50 at CDK2/Cyclin E2, on CDK4/Cyclin D1 and in the assay with OVCAR3 p-RB was at most 100 nM throughout.
With `Cc1cnc(-c2nc(N[C@H]3CCN(S(=O)(=O)c4cnn(C)c4)C[C@H]3F)ncc2C(F)(F)F)s1` [Example 26, N-((3R,4S)-3-fluoro-1-((1-methyl-1H-pyrazol-4-yl)sulfonyl)piperidin-4-yl)-4-(5-methylthiazol-2-yl)-5-(trifluoromethyl)pyrimidin-2-amine], the IC50 on CDK2/Cyclin E2, at CDK4/Cyclin D1 and with OVCAR3 p-RB was at most 100 nM throughout.
On to `Cc1sc(-c2nc(N[C@@H]3CCN(S(=O)(=O)c4cn(C)cn4)C[C@H]3F)ncc2C(F)(F)F)cc1C#N` [Example 5, 5-(2-(((3R,4R)-3-fluoro-1-((1-methyl-1H-imidazol-4-yl)sulfonyl)piperidin-4-yl)amino)-5-(trifluoromethyl)pyrimidin-4-yl)-2-methylthiophene-3-carbonitrile], for which the IC50 at CDK2/Cyclin E2 is at most 100 nM; on CDK4/Cyclin D1, at most 100 nM; with OVCAR3 p-RB it was 100 to 500 nM.
Regarding `Cn1cc(S(=O)(=O)N2CCC(Nc3ncc(C(F)(F)F)c(-c4ncc(C(O)C(F)(F)F)s4)n3)CC2)cn1` (stereo not drawn) [Example 61, 2,2,2-trifluoro-1-(2-(2-((1-((1-methyl-1H-pyrazol-4-yl)sulfonyl)piperidin-4-yl)amino)-5-(trifluoromethyl)pyrimidin-4-yl)thiazol-5-yl)ethan-1-ol], the IC50 on CDK2/Cyclin E2, on CDK4/Cyclin D1 and in the assay on OVCAR3 p-RB was at most 100 nM each time.
`Cn1cnc(S(=O)(=O)N2CC[C@@H](Nc3ncc(C(F)(F)F)c(-c4cc(C(N)=O)c(CC(C)(C)O)s4)n3)[C@H](F)C2)c1` [Example 49, 5-(2-(((3R,4R)-3-fluoro-1-((1-methyl-1H-imidazol-4-yl)sulfonyl)piperidin-4-yl)amino)-5-(trifluoromethyl)pyrimidin-4-yl)-2-(2-hydroxy-2-methylpropyl)thiophene-3-carboxamide]: the IC50 was at most 100 nM at CDK2/Cyclin E2, at most 100 nM at CDK4/Cyclin D1 and 100 to 500 nM in the assay on OVCAR3 p-RB.
On to `Cn1cnc(S(=O)(=O)N2CC[C@H](Nc3ncc(C(F)(F)F)c(-c4cc(C(N)=O)ns4)n3)[C@H](F)C2)c1` [Example 67, 5-(2-(((3R,4S)-3-fluoro-1-((1-methyl-1H-imidazol-4-yl)sulfonyl)piperidin-4-yl)amino)-5-(trifluoromethyl)pyrimidin-4-yl)isothiazole-3-carboxamide], for which the IC50 at CDK2/Cyclin E2, at CDK4/Cyclin D1 and in the assay with OVCAR3 p-RB was at most 100 nM each time.
As to `Cc1sc(-c2nc(N[C@H]3CCN(S(=O)(=O)c4cnn(C)c4)C[C@H]3C)ncc2C(F)(F)F)cc1C#N` [Example 85, 2-methyl-5-(2-(((3R,4S)-3-methyl-1-((1-methyl-1H-pyrazol-4-yl)sulfonyl)piperidin-4-yl)amino)-5-(trifluoromethyl)pyrimidin-4-yl)thiophene-3-carbonitrile], the figures for the IC50 at CDK2/Cyclin E2, at CDK4/Cyclin D1 and in the assay on OVCAR3 p-RB were at most 100 nM, 100 to 500 nM and 100 to 500 nM, respectively.
Turning to `CS(=O)(=O)N1CCC(Nc2ncc(C(F)(F)F)c(-c3cc(C(N)=O)cs3)n2)CC1` [Example 73, 5-(2-((1-(methylsulfonyl)piperidin-4-yl)amino)-5-(trifluoromethyl)pyrimidin-4-yl)thiophene-3-carboxamide], the IC50 at CDK2/Cyclin E2, on CDK4/Cyclin D1 and with OVCAR3 p-RB was at most 100 nM throughout.
As to `Cc1sc(-c2nc(N[C@@H]3CCN(S(=O)(=O)c4cnn(C)c4)C[C@H]3F)ncc2C(F)(F)F)cc1C#N` [Example 4, 5-(2-(((3R,4R)-3-fluoro-1-((1-methyl-1H-pyrazol-4-yl)sulfonyl)piperidin-4-yl)amino)-5-(trifluoromethyl)pyrimidin-4-yl)-2-methylthiophene-3-carbonitrile], the IC50 at CDK2/Cyclin E2 was at most 100 nM; on CDK4/Cyclin D1, at most 100 nM; in the assay on OVCAR3 p-RB it was 100 to 500 nM.
Consider `COc1cc(-c2nc(NC3CCN(S(C)(=O)=O)CC3)ncc2C(F)(F)F)sc1C` [Example 76, 4-(4-methoxy-5-methylthiophen-2-yl)-N-(1-(methylsulfonyl)piperidin-4-yl)-5-(trifluoromethyl)pyrimidin-2-amine], for which the results for the IC50 on CDK2/Cyclin E2, on CDK4/Cyclin D1 and in the assay on OVCAR3 p-RB were 100 to 500 nM, 100 to 500 nM and over 500 nM, respectively.
As for `Cn1cc(S(=O)(=O)N2CCC(Nc3ncc(C(F)(F)F)c(-c4cc(C#N)ns4)n3)CC2)cn1` [Example 91, 5-(2-((1-((1-methyl-1H-pyrazol-4-yl)sulfonyl)piperidin-4-yl)amino)-5-(trifluoromethyl)pyrimidin-4-yl)isothiazole-3-carbonitrile], the results for the IC50 at CDK2/Cyclin E2, at CDK4/Cyclin D1 and with OVCAR3 p-RB were at most 100 nM, 100 to 500 nM and 100 to 500 nM, respectively.
As to `Cn1cnc(S(=O)(=O)N2CCC(Nc3ncc(C(F)(F)F)c(-c4nccs4)n3)CC2)c1` [Example 59, N-(1-((1-methyl-1H-imidazol-4-yl)sulfonyl)piperidin-4-yl)-4-(thiazol-2-yl)-5-(trifluoromethyl)pyrimidin-2-amine], the IC50 at CDK2/Cyclin E2, at CDK4/Cyclin D1 and in the assay with OVCAR3 p-RB was at most 100 nM throughout.
For the molecule `Cc1sc(-c2nc(NC3CCN(S(C)(=O)=O)CC3)ncc2C(F)(F)F)cc1C#N` [Example 83, 2-methyl-5-(2-((1-(methylsulfonyl)piperidin-4-yl)amino)-5-(trifluoromethyl)pyrimidin-4-yl)thiophene-3-carbonitrile], the IC50 at CDK2/Cyclin E2 is at most 100 nM; at CDK4/Cyclin D1, at most 100 nM; in the assay on OVCAR3 p-RB, 100 to 500 nM.
On to `CC(O)c1cnc(-c2nc(NC3CCN(S(=O)(=O)c4c[nH]cn4)CC3)ncc2C(F)(F)F)s1` (stereo not drawn) [Example 57, 1-(2-(2-((1-((1H-imidazol-4-yl)sulfonyl)piperidin-4-yl)amino)-5-(trifluoromethyl)pyrimidin-4-yl)thiazol-5-yl)ethan-1-ol], for which the IC50 on CDK2/Cyclin E2, on CDK4/Cyclin D1 and with OVCAR3 p-RB was at most 100 nM in each case.

Broadly, the IC50 is the concentration at which inhibition is half-maximal.
